Converted amounts (≈) assume the structure as drawn. “Also recorded” adds a separate entry of the source.
Experiments:
Assay type in all cases: cell-based, human
[1] = system: A-375 malignant melanoma cells; assay: In vitro antitumor activity, A-375 melanoma; settings: Homo sapiens, read-out: IC50
Text: (§1) 1) in vitro tumor cell viability assays using MTT and SRB dye reaction endpoints.
(§2) Sulforhodamine B (SRB) Assay for Adherent Tumor Cells
(§3) Sulforhodamine B (SRB) is a protein binding aminoxanthene dye with two sulfonic acid groups. (Lillie, R. D., H. J. Conn's Biological Stains, 9th Ed., Baltimore; Williams & Wilkins, 1977.) It quantitates whole cell protein content by the intensity of dye staining and relates this to the number of viable cells. […] The SRB assay is used for cells which normally adhere to surfaces (in this case plastic culture flasks or petri dishes) as part of their requirement for growth and division in vitro. The SRB assay is currently used by the National Cancer Institute in the anticancer drug screening program. (Skehan, et al., J Natl Cancer Inst 82:1107-1112, 1990; Rubinstein, et al., J Natl Cancer Inst 82:1113-1118, 1990.) Methodologic comparisons have shown that SRB results are linear for the number of tumor cells over a 100-fold range, and for protein content determined by a modified Lowry method or Standard Bradford (Bradford, M., Anal Biochem 72:248-254, 1976) methods. […] (Lillie, R. D., H. J. Conn's Biological Stains, 9th Ed., Baltimore; Williams & Wilkins, 1977.)
(§4) Cell cultures of 10^3 -10^7 cells growing in 96-well plastic microtiter plates are fixed with 50% trichloroacetic acid (TCA) for 30 minutes at 4° C. The cells are then stained with 0.4% (w/v) sulforhodamine B (SRB) dissolved in 1% acetic acid. Unbound dye is removed by 4 washes with 1% acetic acid, and protein-bound dye is extracted with 10 mM unbuffered Tris® base [tris(hydroxymethyl)aminomethane]. The optical density (OD) of this extracted solution is measured at […] in a microtiter plate ultraviolet absorbance detector. Cell viability is expressed as percent of control by dividing the optical densities and multiplying the result by 100.
(§5) Microculture Tetrazolium (MTT) Assay for Tumor Cells
(§6) Tumors are disaggregated into single cell suspensions using mechanical, hypoosmotic, and/or enzymatic (trypsin) methods. The cells are plated at a concentration of 3-5×10^4 per […] well into plastic 96-well plates. Growth medium containing 5-10% (vol/vol) heat-inactivated fetal bovine serum and penicillin/streptomycin (both […]) are added prior to incubation at 37° C. for 6 days. Afterwards the medium containing the drug is removed, the cells are centrifuged in fresh medium or phosphate-buffered saline (pH 7.4). A tetrazolium dye, […]-2,5-diphenyl tetrazolium (MTT), is then added. (Mossman, T., J Immunol 65:55-63, 1983.) This dye forms a colored formazan product upon activation by mitochondrial reductases in viable cells. Typically, the formazan product is solubilized in acid-propanol or DMSO. The intensity of the color is proportional to viable cell numbers and this is quantitated by spectrophotometric absorbance at 570 nm on a micro ELISA plate reader. The results are calibrated in % control absorbance from untreated tumor cells. (Alley, et al., Cancer Res 48:589-601, 1988.)
(§7) Table 3 gives the potencies of the new aziridine-1-carboxamides in a panel of human and murine tumor cells in culture. The tumor cell lines in this table are selected to represent a range of histological and growth phenotypes. Their characteristics are described below.
4.0 The Human A-375 Malignant Melanoma Cell Line was also developed by Girard, et al. (Girard, et al., J Natl Cancer Inst 51(5):1417-1423, 1973) from a human with advanced melanoma. The modal chromosome number is 67 and it has a low plating (colony forming) efficiency of 0.7% when grown on agar. These cells also form rapidly growing tumors when injected subcutaneously into immunodeficient athymic (nu/nu) mice. (Girard, et al., J Natl Cancer Inst 51(5):1417-1423, 1973.) These cells are also used in the NCI drug screening panel. (Skehan, et al., J Natl Cancer Inst 82:1107-1112, 1990.)

[2] = system: OVCAR-3 ovarian carcinoma cells; assay: In vitro antitumor activity, OVCAR-3 ovarian; settings: Homo sapiens, OVCAR-3; OVCAR3 ovarian; read-out: IC50
Text: as §1, §2, §3, §4, §5, §6, §7
5.0 Human OVCAR-3 Ovarian Carcinoma was originally isolated by Hamilton, et al. Experimental model systems of ovarian cancer; applications to the design and evaluation of new treatment approaches. Seminar in Onocology, 11:285-298, 1984, from a patient with progressive adenocarcinoma of the ovary. This patient had relapsed after receiving a combination chemotherapy regimen containing cyclophosphamide, doxorubicin and cisplatin. […] It is also one of the standard human tumor cell lines used for screening new anticancer agents at the NCI. (Alley, et al., Cancer Res 48:589-601, 1988.)

[3] = system: 8226/S myeloma cells; assay: MTT growth inhibition, parental 8226 myeloma cells; settings: for IC50: Homo sapiens, Table 5, Sensitive (parental) 8226, read-out: IC50; for Potency relative to imexon: myeloma cells
Method: as §5, §6
(§8) The following unpublished studies were performed in vitro to develop and characterize a human myeloma cell line with resistance to imexon-induced cytotoxicity. The original (parental) 8226 cell line was developed by Matsuoka, et al. (Matsuoka, et al., Proc Soc Exp Biol Med 125:1246-1250, 1967). It is a lymphoblastoid cell line which stains for lambda light immunoglobulin production. It grows in vitro in suspension culture (non-adherent) and forms tumors when injected into SCID mice. (Skehan, et al., J Natl Cancer Inst 82:1107-1112, 1990.)
(§9) One exciting feature of our novel compounds is, that they work on imexon-resistant cells. An imexon-resistant 8226 myeloma cell line was selected by continuously exposing cells to gradually increasing concentrations of imexon up to 3.25 mg/mL. This cell line has slightly longer cell doubling time than 8226 sensitive cells (24 vs 20 hours). […] The dose response curve for imexon continuous exposure was determined using MTT assay. Each data point represents the mean of three experiments performed in 8 replicates.
(§10) We compared IC50 concentrations and there is a 4-fold resistance observed for the 8226/I-R cell line when the cells were continuously exposed to imexon for […] at 37° C. The degree of resistance was relatively unstable in the absence of the drug, with the resistant cells losing substantial resistance when maintained in imexon-free medium for 20 weeks (FIG. 2).
(§11) IC50 was measured by MTT assay. IC50 refer to the concentration by drug that results in 50% growth inhibition. A minimum of 2 assays were performed for each drug following 250 mg/mL imexon is equivalent to 6.5 cGy radiation in sensitive cells.
(§12) Using the colorimetric microculture tetrazolium (MTT) assay, imexon and 25-related analogs were studied for tumor growth inhibition in vitro. Imexon-induced DNA single strand breaks were assessed by alkaline elution. Cells were exposed to imexon for 1 hour prior to start of experiment. The fraction of ^14 C-labeled DNA retained on the filter is plotted against the time of elution. The cells included parental 8226 myeloma cells and the 8226 imexon-resistant cells exposed to drug (imexon or analog) continuously for 10 days at 37° C. At the end of the exposure period, the cells were analyzed for viability using the formazan-forming tetrazolium dye (MTT) assay.

[4] = system: 8226/I-R myeloma cells; assay: MTT growth inhibition, imexon-resistant 8226 myeloma cells; settings: for Cross-resistance with imexon: 8226 imexon-resistant vs parental; for IC50: Homo sapiens, imexon-resistant 8226, read-out: IC50; for IC50 / Fold Resistance of IC50 R/IC50 's: Table 5; for Fold Resistance of IC50 R/IC50 's: imexon-resistant vs sensitive 8226
Method: as §5, §6, §8, §9, §10, §11, §12

| SMILES | IC50 [1] | IC50 [2] | IC50 [3] | Cross-resistance with imexon [4] | IC50 [4] | Fold Resistance of IC50 R/IC50 's [4] | Enhanced potency: decrease in IC50 against myeloma cell growth ([3]; compared with imexon) | Potency relative to imexon [3] | Antitumor effect ([3]; parental and imexon-resistant myeloma cells) |
| --- | --- | --- | --- | --- | --- | --- | --- | --- | --- |
| CCCCNC(=O)N1CC1C#N (stereo not drawn) [AMP 414, 2-Cyanoaziridine-1-(N-butyl)carboxamide] | 2.5 µg/mL (≈ 15 µM) | 2 µg/mL | 2.8 µg/mL (≈ 16.7 µM) | lack of significant (>50% IC50 change) cross-resistance with imexon | 2.8 µg/mL (≈ 16.7 µM) | 1.0 | – | – | – |
| N#CC1CN1C(=O)Nc1ccc(F)cc1 (stereo not drawn) [AMP 415, 2-Cyanoaziridine-1-[N-(4-fluorophenyl)]carboxamide] | 0.7 µg/mL (≈ 3.41 µM) | 1.2 µg/mL | 1 µg/mL (≈ 4.87 µM) | lack of significant (>50% IC50 change) cross-resistance with imexon; also recorded: no significant cross resistance | 1.2 µg/mL (≈ 5.85 µM) | 1.2 | > 40% | roughly equal potency to imexon | – |
| N#CC1CN1C(=O)Nc1ccc(C(F)(F)F)cc1 (stereo not drawn) [AMP 416, 2-Cyanoaziridine-1-[N-(4-trifluorophenyl)]carboxamide] | 3 µg/mL (≈ 11.8 µM) | 1.5 µg/mL | 2.1 µg/mL (≈ 8.23 µM) | lack of significant (>50% IC50 change) cross-resistance with imexon; also recorded: no significant cross resistance | 2 µg/mL (≈ 7.84 µM) | 0.95 | – | roughly equal potency to imexon | – |
| N#CC1CN1C(=O)Nc1ccc([N+](=O)[O-])cc1 (stereo not drawn) [AMP 417, 2-Cyanoaziridine-1-[N-(4-nitrophenyl)]carboxamide] | 0.9 µg/mL (≈ 3.88 µM) | 1.5 µg/mL | 2.1 µg/mL (≈ 9.04 µM) | lack of significant (>50% IC50 change) cross-resistance with imexon; also recorded: no significant cross resistance | 2 µg/mL (≈ 8.61 µM) | 0.95 | – | roughly equal potency to imexon | – |
| CCOC(=O)c1ccc(NC(=O)N2CC2C#N)cc1 (stereo not drawn) [AMP 419, 2-Cyanoaziridine-1-[N-(4-ethoxycarbonylphenyl)]carboxamide] | 2 µg/mL (≈ 7.71 µM) | 1.5 µg/mL | – | lack of significant (>50% IC50 change) cross-resistance with imexon | – | – | – | – | – |
| CCOC(=O)CNC(=O)N1CC1C#N (stereo not drawn) [AMP 420, 2-Cyanoaziridine-1-[N-(ethoxycarbonyl)methyl]carboxamide] | 10 µg/mL (≈ 50.7 µM) | 10 µg/mL | 5 µg/mL (≈ 25.4 µM) | lack of significant (>50% IC50 change) cross-resistance with imexon | 6 µg/mL (≈ 30.4 µM) | 1.2 | – | – | – |
| N#CC1CN1C(=O)Nc1cccnc1 (stereo not drawn) [AMP 421, 2-Cyanoaziridine-1-[N-(3-pyridyl)]carboxamide] | 2.3 µg/mL (≈ 12.2 µM) | 1.9 µg/mL | 2.2 µg/mL (≈ 11.7 µM) | lack of significant (>50% IC50 change) cross-resistance with imexon | 2.8 µg/mL (≈ 14.9 µM) | 1.3 | – | – | – |
| N#CC1CN1C(=O)Nc1ccc(S(N)(=O)=O)cc1 (stereo not drawn) [AMP 422, 2-Cyanoaziridine-1-[N-(4-sulfamylphenyl)]carboxamide] | 50 µg/mL (≈ 188 µM) | 50 µg/mL | > 100 µg/mL | – | < 100 µg/mL | – | – | – | no antitumor effects even at high concentrations |
